According to patent US20230279351A1, “ARTIFICIAL ANTIGEN-SPECIFIC IMMUNOREGULATORY T (AIRT) CELLS” (Seattle Children's Hospital (dba Seattle Children's …, priority 2019, published 2023):

Assays:
[1] = system: split IL-2 CISC (FRB-IL2RB and FKBP-IL2RG) dual-edited human CD4+ T cells; test: Enrichment of split IL-2 CISC dual-edited CD4+ T cells; format: cell-based
Description: FIG. 27 depicts an exemplary timeline of steps for dual AAV editing of CD4+ T cells, expansion with rapalog, and analysis of enriched cells. […] Flow cytometry to assess enrichment of GFP, mCherry double-positive cells was carried out on days 6, 8, and 10 post-editing.
CISC components (IL2RG vs. IL2RB) are split between 2 constructs and co-expressed with either HA-FoxP3 cDNA or the islet-specific TCR, T1D4 (AAVs #3240 and #3243 respectively). Each repair template is flanked by identical homology arms that […] the gRNA targeting the TRAC locus. […] Panel B depicts a timeline of key steps for dual AAV/RNP-based editing of CD4+ T cells, expansion with Rapalog and analysis of enriched cells. […] Flow cytometry to assess enrichment of HA-FoxP3, TCR double-positive cells was carried out on days 5 and 8 post-editing.
FIG. 60 relates to a strategy for testing two-loci dual-editing of human CD4+ T cells. […] CISC components are split between 2 constructs and co-expressed with either mCherry or GFP ([…]). Repair templates are flanked by homology arms matched to gRNAs targeting either the TRAC or FOXP3 locus, respectively. […] Panel B depicts a timeline showing steps for dual AAV editing of CD4+ T cells and expansion with Rapalog. Human CD4+ T cells were edited using human TRAC gRNA_4, human FOXP3 gRNA_T9 and #3251 (MND.mCherry.FKBP.IL2RG) and #3207 (MND.GFP.FRB.IL2RB) AAV constructs (two-loci dual editing). Immediately following electroporation, the cells were placed in either 20% or 2.5% FBS containing media (recovery media). After ~16 h, the media was replaced with 20% FBS containing media and FACS analysis done on day 3 to determine editing rate.
In order to obtain sufficient numbers of cells for therapeutic use, it may be useful, in some contexts, to selectively expand engineered cells in vitro. […] See e.g., FIG. 108. In such methods, FRB-IL2RB and FKBP-IL2RG components were contained in the same cassette to select for single integration events.
For these studies, FRB-IL2RB and FKBP-IL2RG components were split into two separate cassettes, one containing GFP and the other containing mCherry, to allow for selection of two independent integrations.
A timeline for key steps for dual AAV editing of CD4+ T cells and expansion with Rapalog is depicted in FIG. 124B. […] Briefly, human CD4+ T cells were edited using human TRAC gRNA_4, and #3240 (MND.HA.FOXP3.FKBP.IL2RG) and #3243 (MND.T1D4.FRB.IL2RB) AAV constructs (single-locus dual editing). Immediately following electroporation, the cells were placed in 2.5% FBS containing media (recovery media) for ~24 hours and then maintained in 20% FBS containing media throughout the rest of the experiment.

[2] = system: split-DISC (#3280 and #3207) dual-edited human CD4+ T cells; test: Enrichment/expansion of split-DISC dual-edited CD4+ T cells; format: cell-based; settings: 7-day treatment in AP21967 in gREX, from 340,000 cells seeded
Description: Cells were bead-stimulated (CD3/CD28) for 3 days prior to editing. […] Panel C depicts flow plots show the percentage of GFP/mCherry double-positive cells on day 3 post-editing.
Dual-editing was performed as described in FIG. 70.
Split-DISC constructs were used to determine the enrichment and expansion of dual-edited T cells. The ability to scale up manufacturing to obtain cell numbers sufficient for animal studies by expanding edited CD4+ T cells in gREX flasks was assessed. In particular, dual-editing and enrichment of human CD4+ T Cells using split-DISC constructs was studied. […] Each repair template (#3280 and #3207) was flanked by identical homology arms matched to a gRNA targeting the TRAC locus. […] Cells were bead stimulated (CD3/CD28) for 3 days prior to editing. Immediately following electroporation, the cells were placed in 2.5% FBS containing media (recovery media) for ~24 hours and then maintained in 20% FBS containing media throughout the rest of the experiment. Three days post editing, cells were analyzed by flow for GFP and mCherry expression, and then expanded in media containing 50 ng/ml human IL-2 or 100 nM Rapalog.
Cells were bead stimulated (CD3/CD28) for 3 days prior to editing. Three days post editing, cells were analyzed by flow for GFP and mCherry expression, and then expanded in media containing 100 nM Rapalog for an additional 7 days.

Compound: CO[C@H]1[C@@H](O)[C@H](C)C[C@H](C)/C=C/C=C/C=C(\C)[C@@H](c2c[nH]c3c(C)cccc23)C[C@@H]2CC[C@@H](C)[C@@](O)(O2)C(=O)C(=O)N2CCCC[C@H]2C(=O)O[C@H]([C@H](C)C[C@@H]2CC[C@@H](O)[C@H](OC)C2)C[C@H](O)[C@H](C)/C=C(\C)[C@H]1O [Rapalog]
- enrichment of double-positive cells ([1]; #3240 and #3243, cells recovered in 2.5% FBS, 7 days of Rapalog treatment): ~10 fold
- FOXP3/T1D4 double positive cells ([1]; #3240 and #3243, day 7, 100 nM AP21967 or 50 ng/mL IL-2, initial 1.6%): 19.1%
- GFP/mCherry double-positive cells ([1]; donor R003471, enriched in presence of Rapalog (FIG. 32)): 28.5%
- GFP/mCherry double-positive cells ([1]; donor R003657, enriched in presence of Rapalog (FIG. 32)): 13.8%
- enrichment of double-positive antigen-specific Treg population ([1]; over the course of the 10 day study): approximately 15 fold
- GFP/mCherry double-positive cells ([1]; two-loci #3207 and #3251, repeat experiment (FIG. 65), 10 days, initial 15.4%): 54%
- expansion of double positive cells [2]: 32 fold
